Measurements reported in PubChem BioAssay (NCI).
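Exposure lasted 48 hours, with cells grown in 96-well plates and compounds tested at five concentrations. Abbreviation: GI50, concentration required for 50% inhibition of growth. TGI: concentration producing complete growth inhibition.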

Legend:
Test in all cases: DTP human tumour cell line panel, 48 h
SK-OV-3 ovarian = tested on: SK-OV-3 ovarian
PC-3 prostate = tested on: PC-3 prostate
786-0 renal = tested on: 786-0 renal
SF-268 CNS = tested on: SF-268 CNS
HOP-92 NSCLC = tested on: HOP-92 NSCLC
HCT-116 colon = tested on: HCT-116 colon
KM12 colon = tested on: KM12 colon
SK-MEL-5 melanoma = tested on: SK-MEL-5 melanoma
CAKI-1 renal = tested on: CAKI-1 renal
CCRF-CEM leukemia = tested on: CCRF-CEM leukemia
NCI-H226 lung = tested on: NCI-H226 lung
LOX IMVI melanoma = tested on: LOX IMVI melanoma
T-47D breast = tested on: T-47D breast
A549 NSCLC = tested on: A549 NSCLC
MOLT-4 leukemia = tested on: MOLT-4 leukemia
M14 melanoma = tested on: M14 melanoma
NCI-H522 lung = tested on: NCI-H522 lung
SF-295 CNS = tested on: SF-295 CNS
EKVX NSCLC = tested on: EKVX NSCLC
SR leukemia = tested on: SR leukemia
SF-539 CNS = tested on: SF-539 CNS
U251 CNS = tested on: U251 CNS
K-562 leukemia = tested on: K-562 leukemia
NCI/ADR-RES ovarian = tested on: NCI/ADR-RES ovarian
DU-145 prostate = tested on: DU-145 prostate
SNB-19 CNS = tested on: SNB-19 CNS
IGROV1 ovarian = tested on: IGROV1 ovarian
A498 renal = tested on: A498 renal
OVCAR-4 ovarian = tested on: OVCAR-4 ovarian
HOP-62 NSCLC = tested on: HOP-62 NSCLC
OVCAR-5 ovarian = tested on: OVCAR-5 ovarian
HCC-2998 colon = tested on: HCC-2998 colon
SK-MEL-28 melanoma = tested on: SK-MEL-28 melanoma
NCI-H460 lung = tested on: NCI-H460 lung
ACHN renal = tested on: ACHN renal
COLO 205 colon = tested on: COLO 205 colon
RXF 393 renal = tested on: RXF 393 renal
HS 578T breast = tested on: HS 578T breast
BT-549 breast = tested on: BT-549 breast
TK-10 renal = tested on: TK-10 renal
OVCAR-3 ovarian = tested on: OVCAR-3 ovarian
HCT-15 colon = tested on: HCT-15 colon
MDA-MB-468 breast = tested on: MDA-MB-468 breast
SW-620 colon = tested on: SW-620 colon
HT29 colon = tested on: HT29 colon
OVCAR-8 ovarian = tested on: OVCAR-8 ovarian
SN12C renal = tested on: SN12C renal
UACC-257 melanoma = tested on: UACC-257 melanoma
MALME-3M melanoma = tested on: MALME-3M melanoma
HL-60(TB) leukemia = tested on: HL-60(TB) leukemia
MDA-MB-435 = tested on: MDA-MB-435
MCF7 breast = tested on: MCF7 breast
RPMI-8226 leukemia = tested on: RPMI-8226 leukemia
NCI-H23 lung = tested on: NCI-H23 lung
UACC-62 melanoma = tested on: UACC-62 melanoma

## COc1ccc2ccccc2c1/C=C1\SC(=Nc2ccc(O)cc2)NC1=O
SK-OV-3 ovarian
  GI50: 1.66 µM
  TGI: 18 µM
PC-3 prostate
  GI50: 0.798 µM
  TGI: 29.1 µM
786-0 renal
  GI50: 3.19 µM
  TGI: 21 µM
SF-268 CNS
  GI50: 1.59 µM
  TGI: 18.7 µM
HOP-92 NSCLC
  GI50: 2.05 µM
  TGI: 20.3 µM
HCT-116 colon
  GI50: 0.432 µM
  TGI: 11.6 µM
KM12 colon
  GI50: 1.19 µM
  TGI: 14.8 µM
SK-MEL-5 melanoma
  GI50: 0.54 µM
  TGI: 2.28 µM
CAKI-1 renal
  GI50: 11.1 µM
  TGI: 46.5 µM
CCRF-CEM leukemia
  GI50: 0.651 µM
  TGI: 30.1 µM
NCI-H226 lung
  GI50: 5.56 µM
  TGI: 34.7 µM
LOX IMVI melanoma
  GI50: 0.666 µM
  TGI: 12.1 µM
T-47D breast
  GI50: 0.765 µM
  TGI: 31.7 µM
A549 NSCLC
  GI50: 2.01 µM
  TGI: 16.9 µM
MOLT-4 leukemia
  GI50: 1.51 µM
  TGI: 11.3 µM
M14 melanoma
  GI50: 0.492 µM
  TGI: 10.8 µM
NCI-H522 lung
  GI50: 0.422 µM
  TGI: 2.22 µM
SF-295 CNS
  GI50: 0.843 µM
  TGI: 10.9 µM
EKVX NSCLC
  GI50: 1.11 µM
  TGI: 17.3 µM
SR leukemia
  GI50: 0.321 µM
  TGI: 12.5 µM
SF-539 CNS
  GI50: 0.517 µM
  TGI: 3.4 µM
U251 CNS
  GI50: 0.425 µM
  TGI: 11.3 µM
K-562 leukemia
  GI50: 0.413 µM
  TGI: 11.9 µM
NCI/ADR-RES ovarian
  GI50: 0.95 µM
  TGI: 3.8 µM
DU-145 prostate
  GI50: 2.17 µM
  TGI: 19.6 µM
SNB-19 CNS
  GI50: 1.8 µM
  TGI: 14 µM
IGROV1 ovarian
  GI50: 1.85 µM
  TGI: 14.4 µM
A498 renal
  GI50: 3.7 µM
  TGI: 16.4 µM
OVCAR-4 ovarian
  GI50: 3.81 µM
  TGI: 21.1 µM
HOP-62 NSCLC
  GI50: 2.58 µM
  TGI: 13.6 µM
OVCAR-5 ovarian
  GI50: 3.56 µM
  TGI: 16.2 µM
HCC-2998 colon
  GI50: 1.73 µM
  TGI: 12.6 µM
SK-MEL-28 melanoma
  GI50: 0.966 µM
  TGI: 19.9 µM
NCI-H460 lung
  GI50: 0.833 µM
  TGI: 11.3 µM
ACHN renal
  GI50: 1.81 µM
  TGI: 16.3 µM
COLO 205 colon
  GI50: 1.88 µM
  TGI: 5.04 µM
RXF 393 renal
  GI50: 0.272 µM
  TGI: 1.71 µM
HS 578T breast
  GI50: 0.4 µM
  TGI: 11.9 µM
BT-549 breast
  GI50: 1.04 µM
  TGI: 4.54 µM
TK-10 renal
  GI50: 4.14 µM
  TGI: 21.6 µM
OVCAR-3 ovarian
  GI50: 0.425 µM
  TGI: 11.7 µM
HCT-15 colon
  GI50: 0.442 µM
  TGI: 11.1 µM
MDA-MB-468 breast
  GI50: 0.37 µM
  TGI: 1.82 µM
SW-620 colon
  GI50: 0.437 µM
  TGI: 15.8 µM
HT29 colon
  GI50: 2.82 µM
  TGI: 7.35 µM
OVCAR-8 ovarian
  GI50: 1.58 µM
  TGI: 6.51 µM
SN12C renal
  GI50: 2.48 µM
  TGI: 13.3 µM
UACC-257 melanoma
  GI50: 0.683 µM
  TGI: 19.6 µM
MALME-3M melanoma
  GI50: 1.02 µM
  TGI: 14.4 µM
HL-60(TB) leukemia
  GI50: 0.431 µM
  TGI: 2.65 µM
MDA-MB-435
  GI50: 0.235 µM
  TGI: 0.591 µM
MCF7 breast
  GI50: 0.428 µM
  TGI: 12.5 µM
RPMI-8226 leukemia
  GI50: 2.59 µM
  TGI: 9.45 µM
NCI-H23 lung
  GI50: 1.11 µM
  TGI: 11.3 µM
UACC-62 melanoma
  GI50: 0.346 µM
  TGI: 12.5 µM
